The target in assay [1] is T1, human κ opioid receptor (Homo sapiens, UniProt P41145). Briefly: [35S]GTPγS binding mediated by the κ opioid receptor, CHO membranes. The class given is biochemical. The conditions noted are these: for Emax ± SEM (% maximal stimulation): κ receptor, [35S]GTPγS. On the technique in general: GTPγS resists hydrolysis and so accumulates on activated G proteins.
Assay [2] deals with T2, human μ opioid receptor (Homo sapiens, UniProt P35372). Nature of the assay: [35S]GTPγS binding mediated by the μ opioid receptor, CHO membranes. The class given is biochemical. The settings on record: for pharmacological properties / IC50: μ receptor; for pharmacological properties: [35S]GTPγS; for IC50: inhibition of binding stimulated by 200 nM DAMGO.
T2 sequence (P35372 whole entry): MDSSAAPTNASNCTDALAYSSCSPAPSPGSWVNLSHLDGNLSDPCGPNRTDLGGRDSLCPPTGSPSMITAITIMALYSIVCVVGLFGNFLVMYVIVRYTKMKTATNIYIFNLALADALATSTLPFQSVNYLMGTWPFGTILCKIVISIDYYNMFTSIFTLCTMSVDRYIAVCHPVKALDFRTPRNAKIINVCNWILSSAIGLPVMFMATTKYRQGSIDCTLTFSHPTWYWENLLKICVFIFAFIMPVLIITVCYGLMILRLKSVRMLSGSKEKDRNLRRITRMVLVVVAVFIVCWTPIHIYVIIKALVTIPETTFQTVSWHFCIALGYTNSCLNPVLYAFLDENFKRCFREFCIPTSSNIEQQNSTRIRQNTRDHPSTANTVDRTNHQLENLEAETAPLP
Assay [3] addresses T1, human κ opioid receptor. Nature of the assay: Opioid receptor binding, [3H]U69,593, CHO cell membranes. The conditions noted are these: for Ki (nM) ± SEM [3H]U69,593 (κ): CHO membranes, human κ receptor, 25 °C; for Selectivity σ/κ: ratio of Ki values (δ over κ).
Assay [4] concerns the target T2, human μ opioid receptor. Nature of the assay: Opioid receptor binding, [3H]DAMGO, CHO cell membranes. The conditions noted are these: for Ki (nM) ± SEM [3H]DAMGO (μ): CHO membranes, human μ receptor, 25 °C.
The target in assay [5] is T3, human δ opioid receptor (Homo sapiens, UniProt P41143). Briefly: Opioid receptor binding, [3H]naltrindole, CHO cell membranes.
T3 sequence (P41143 whole entry): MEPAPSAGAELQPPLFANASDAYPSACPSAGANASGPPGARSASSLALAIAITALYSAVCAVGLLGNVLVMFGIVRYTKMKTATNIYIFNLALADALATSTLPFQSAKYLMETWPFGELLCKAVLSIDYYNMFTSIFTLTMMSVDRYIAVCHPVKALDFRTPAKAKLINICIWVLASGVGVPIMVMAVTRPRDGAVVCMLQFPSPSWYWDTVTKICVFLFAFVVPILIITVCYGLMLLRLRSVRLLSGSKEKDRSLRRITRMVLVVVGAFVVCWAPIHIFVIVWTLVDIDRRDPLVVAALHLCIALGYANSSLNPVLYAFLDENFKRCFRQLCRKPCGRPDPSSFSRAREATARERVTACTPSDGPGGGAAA
The target of assay [6] is T1, human κ opioid receptor. The conditions noted are these: [35S]GTPγS, ref [5c],[10c]; cited from earlier work.
The conditions of assay [7]: acute and chronic treatment; ref [7]; cited from earlier work.
In assay [8] the target is T2, human μ opioid receptor. The settings on record: [35S]GTPγS, ref [5c],[10c]; cited from earlier work.
In assay [9] the target is T1, human κ opioid receptor. The settings on record: ratio of Ki values (δ over κ), literature compounds; ref [5c], [10c], [11]; cited from earlier work.
The target of assay [10] is T3, human δ opioid receptor. The settings on record: at 10 μM; ref [5c], [10c], [11]; cited from earlier work.

“Also recorded” adds a separate entry of the source. Where two headings read alike, the source gives them in different places.

T1 sequence (P41145 whole entry): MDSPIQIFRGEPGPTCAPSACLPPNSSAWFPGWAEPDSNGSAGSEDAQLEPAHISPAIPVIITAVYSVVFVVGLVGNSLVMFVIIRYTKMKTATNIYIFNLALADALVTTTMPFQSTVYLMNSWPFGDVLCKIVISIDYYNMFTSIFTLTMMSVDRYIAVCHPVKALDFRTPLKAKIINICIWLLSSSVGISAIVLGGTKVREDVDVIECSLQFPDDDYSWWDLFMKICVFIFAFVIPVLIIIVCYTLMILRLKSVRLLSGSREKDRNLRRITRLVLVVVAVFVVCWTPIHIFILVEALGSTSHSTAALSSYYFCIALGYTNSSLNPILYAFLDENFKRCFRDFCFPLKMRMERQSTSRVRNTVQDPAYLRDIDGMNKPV

For orientation: EC50 means the concentration needed to bring the measured effect to its halfway point. A higher EC50 goes with a less potent agent. For orientation: IC50 means the concentration that inhibits the measured activity by half. Low readings indicate higher potency, high ones lower potency. Take `CNc1nc2cc3c(cc2s1)C[C@@H]1[C@@H]2CCCC[C@]32CCN1CCCF` [13c, N′-Methyl-aminothiazolo[5,4-b]-N-fluoropropylmorphinan]: on human κ opioid receptor [1], the EC50 was 120 ± 6.7 nM and the “Emax ± SEM (% maximal stimulation)” value is on record as “higher Emax than that of selective agonist U50,488”. In addition, on human μ opioid receptor [2], the EC50 amounted to 420 ± 17 nM, the pharmacological properties entry is listed as “full agonist activity; also recorded: full agonists” and the IC50 is > 10000 nM.
Regarding `CN(C)c1nc2cc3c(cc2s1)C[C@@H]1[C@@H]2CCCC[C@]32CCN1CCCF` [17c, N′, N′-Dimethyl-aminothiazolo[5,4-b]-N-fluoropropylmethylmorphinan], the “Ki (nM) ± SEM [3H]U69,593 (κ)” value on human κ opioid receptor [3] was “low affinity”. The “Ki (nM) ± SEM [3H]DAMGO (μ)” value on human μ opioid receptor [4] is given as “low affinity”.
`FC(F)(F)CNc1nc2cc3c(cc2s1)C[C@@H]1[C@@H]2CCCC[C@]32CCN1CC1CC1` [compound 15, N′-Trifluoroethyl-aminothiazolo[5,4-b]-N-cyclopropylmethylmorphinan]: on human κ opioid receptor [1], the “Emax ± SEM (% maximal stimulation)” value is “higher Emax than that of selective agonist U50,488”.
Broadly, the Ki is the equilibrium dissociation constant of an inhibitor or competing ligand from its target. Higher therefore signals lower affinity. Take `c1c2c(cc3sc(N4CCNCC4)nc13)C[C@@H]1[C@@H]3CCCC[C@]23CCN1CC1CC1` [compound 28, N′-(Piperazin-1-yl)-thiazolo[5,4-b]-N-cyclopropylmethylmorphinan]: the Ki on human κ opioid receptor [3] is 110 ± 16 nM; at human μ opioid receptor [4], 2700 ± 320 nM; at human δ opioid receptor [5] it was > 10000 nM. For the same compound, on human κ opioid receptor [3] (ratio of Ki values), the “Selectivity μ/κ” value was found to be 25. The “Selectivity σ/κ” value on human κ opioid receptor [3] is >91.
On to `Nc1nc2cc3c(cc2s1)C[C@@H]1[C@@H]2CCCC[C@]32CCN1C[C@@H]1CCCO1` [compound 12, Aminothiazolo[5,4-b]-N-(S)-tetrahydrofurylmethylmorphinan], for which, at human μ opioid receptor [2], the pharmacological properties entry was “full agonist activity; also recorded: full agonists” and the IC50 was > 10000 nM.
Consider `Oc1ccc2c(c1)[C@@]13CCCC[C@H]1[C@@H](C2)N(CC1CC1)CC3` [compound 1, cyclorphan, reference compound], for which the “Emax ± SEM (% maximal stimulation)” value at human κ opioid receptor [6] is on record as 90 ±10 % maximal stimulation. Besides, in [7], the cocaine self-administration entry is listed as “reduced cocaine self-administration dose-dependently”. The pharmacological properties entry at human μ opioid receptor [8] is “Partial agonist”.
As to `Oc1ccc2c(c1)[C@@]13CCCC[C@H]1[C@@H](C2)N(CC1CCC1)CC3` [butorphan], the cocaine self-administration result in [7] was “reduced cocaine self-administration dose-dependently”.
As for `CCCNc1nc2cc3c(cc2s1)C[C@@H]1[C@@H]2CCCC[C@]32CCN1CCCF` [16c, N′-Propyl-aminothiazolo[5,4-b]-N-fluoropropylmorphinan], on human κ opioid receptor [3], the “Ki (nM) ± SEM [3H]U69,593 (κ)” value is listed as “low affinity”. Also, on human μ opioid receptor [4], the “Ki (nM) ± SEM [3H]DAMGO (μ)” value is reported as “low affinity”.
For `Nc1nc2cc3c(cc2o1)[C@@]12CCCC[C@H]1[C@@H](C3)N(CC1CC1)CC2` [compound 4], the “Selectivity σ/κ” value on human κ opioid receptor [9] was >192. Also, on human δ opioid receptor [10], the “inhibition of [3H]Naltrindole (δ) binding” value is given as 18% inh at 10 μM.
As for `CCNc1nc2cc3c(cc2s1)C[C@@H]1[C@@H]2CCCC[C@]32CCN1CC1CC1` [19a, N′-Ethyl-aminothiazolo[5,4-b]-N-cyclopropylmethylmorphinan], on human κ opioid receptor [1], the response was half-maximal at 22 ± 5.1 nM (EC50) and the “Emax ± SEM (% maximal stimulation)” value was “higher Emax than that of selective agonist U50,488”. Moreover, on human μ opioid receptor [2], a half-maximal effect (EC50) was put at 29 ± 4.6 nM, the pharmacological properties result is on record as “full agonist activity; also recorded: full agonists” and the IC50 was > 10000 nM.
Turning to `CCNc1nc2cc3c(cc2s1)C[C@@H]1[C@@H]2CCCC[C@]32CCN1CCCF` [19c, N′-Ethyl-aminothiazolo[5,4-b]-N-fluoropropylmorphinan], at human κ opioid receptor [1], the “Emax ± SEM (% maximal stimulation)” value is given as “higher Emax than that of selective agonist U50,488”. On human μ opioid receptor [2], the pharmacological properties entry is “full agonist activity; also recorded: full agonists” and the IC50 is > 10000 nM.
For the compound `Nc1nc2cc3c(cc2s1)C[C@@H]1[C@@H]2CCCC[C@]32CCN1CCCF` [compound 11, Aminothiazolo[5,4-b]-N-fluoropropylmorphinan], at human μ opioid receptor [2], the pharmacological properties entry is “partial agonist activity”.
For `c1ccc(Nc2nc3cc4c(cc3s2)C[C@@H]2[C@@H]3CCCC[C@]43CCN2CC2CC2)nc1` [compound 27, N′-(Pyridin-2-yl)-aminothiazolo[5,4-b]-N-cyclopropylmethylmorphinan], at human κ opioid receptor [3], the “Selectivity σ/κ” value is listed as >110.
Take `CNc1nc2cc3c(cc2s1)C[C@@H]1[C@@H]2CCCC[C@]32CCN1CC1CC1` [13a, N′-Methylaminothiazolo[5,4-b]-N-cyclopropylmethylmorphinan]: at human μ opioid receptor [2], the pharmacological properties entry is recorded as “partial agonist activity; also recorded: partial agonists”.
In the case of `CN(C)c1nc2cc3c(cc2s1)C[C@@H]1[C@@H]2CCCC[C@]32CCN1CC1CC1` [17a, N′, N′-Dimethyl-aminothiazolo[5,4-b]-N-cyclopropylmethylmorphinan], on human μ opioid receptor [2], the pharmacological properties result is listed as “partial agonist activity”.
